Assay results reported in patent US10363239B2, “Method for inhibiting growth of cancer cells” (Pain Therapeutics, Inc., priority 2013, dated 2019).
Where two headings read alike, the source gives them in different places.

What was measured:
[1] = biological target: FLNA pentapeptide of SEQ ID NO: 1 (Bn-VAKGL) (Homo sapiens, UniProt P21333); experiment: FITC-NLX-based FLNA screening assay (inhibition of FITC-naloxone binding to Bn-VAKGL on streptavidin plates); conditions: for inhibition at 0.01 µM / inhibition at 0.1 µM / inhibition at 1 µM / Percent Binding Inhibition: 10 nM FITC-NLX
mu opiate receptor (MOR) = experiment: MOR agonist activity using [35S]GTPγS binding assay in striatal membranes; format: biochemical
Protocol: To assess the mu opiate receptor (MOR) agonist activity of positive compounds from the FLNA screening, compounds were tested in a [^35S]GTPγS binding assay using striatal membranes. […] This assay measures a functional consequence of receptor occupancy at one of the earliest receptor-mediated events. The assay permits traditional pharmacological parameters of potency, efficacy and antagonist affinity, with the advantage that agonist measures are not subjected to amplification or other modulation that may occur when analyzing parameters further downstream of the receptor.
Thus, striatal tissue was homogenized in 10 volumes of ice cold 25 mM HEPES buffer, pH 7.4, which contained 1 mM EGTA, 100 mM sucrose, 50 μg/ml leupeptin, 0.04 mM PMSF, 2 μg/ml soybean trypsin inhibitor and 0.2% 2-mercaptoethanol. The homogenates were centrifuged at 800×g for 5 minutes and the supernatants were centrifuged at 49,000×g for 20 minutes. The resulting pellets were suspended in 10 volume of reaction buffer, which contained 25 mM HEPES, pH 7.5, 100 mM NaCl, 50 μg/ml leupeptin, 2 μg/ml soybean trypsin inhibitor, 0.04 mM PMSF and 0.02% […].
The resultant striatal membrane preparation (200 μg) was admixed and maintained (incubated) at 30° C. for 5 minutes in reaction buffer as above that additionally contained 1 mM MgCl2 and 0.5 nM [^35S]GTPγS (0.1 μCi/assay, PerkinElmer Life and Analytical Sciences) in a total volume of 250 μl and continued for 5 minutes in the absence or presence of 0.1-10 μM of an assayed compound of interest. The reaction was terminated by dilution with 750 μl of ice-cold reaction buffer that contained 20 mM MgCl2 and 1 mM EGTA and immediate centrifugation at 16,000×g for 5 minutes.
The resulting pellet was solubilized by sonicating for 10 seconds in 0.5 ml of immunoprecipitation buffer containing 0.5% digitonin, 0.2% sodium cholate and 0.5% NP-40. Normal rabbit serum (1 μl) was added to 1 ml of lysate and incubated at 25° C. for 30 minutes. Nonspecific immune complexes were removed by incubation with 25 μl of protein A/G-conjugated agarose beads at 25° C. for 30 minutes followed by centrifugation at 5,000×g at 4° C. for 5 minutes. The supernatant was divided and separately incubated at 25° C. for 30 minutes with antibodies raised against Gαo proteins (1:1,000 dilutions).
The immunocomplexes so formed were collected by incubation at 25° C. for 30 minutes with 40 μl of agarose-conjugated protein A/G beads and centrifugation at 5,000×g at 4° C. for 5 minutes. The pellet was washed and suspended in buffer containing 50 mM Tris-HCl, pH 8.0, and 1% NP-40. The radioactivity in the suspension was determined by liquid scintillation spectrometry.

[2] = FLNA-binding compound 0.01 μM, read-out: Percent Binding Inhibition
[3] = FLNA-binding compound 0.1 μM, read-out: Percent Binding Inhibition
[4] = FLNA-binding compound 1 μM, read-out: Percent Binding Inhibition
[5] = Series C-2, 0.1 μM compound, relative to DAMGO
[6] = Series C-2, 0.1 μM compound, [35S]GTPγS binding to Gαo, striatal membranes
[7] = Series C-2, 1 μM compound + 1 μM β-FNA
[8] = Series C-2, 1 μM compound + β-FNA, relative to DAMGO + BFNA
[9] = Series C-2, 1 μM compound, relative to DAMGO
[10] = Series C-2, 1 μM compound, [35S]GTPγS binding to Gαo, striatal membranes
[11] = read-out: Percent Binding Inhibition, FLNA-binding compound 0.01 μM
[12] = read-out: Percent Binding Inhibition, FLNA-binding compound 0.1 μM
[13] = read-out: Percent Binding Inhibition, FLNA-binding compound 1 μM

## COc1ccc(S(=O)(=O)N2CCC3(CC2)OCCN3S(=O)(=O)c2ccc(OC)cc2)cc1 [Compound 7866]
[1]; [2]
  inhibition at 0.01 µM: 38.5%
[1]; [3]
  inhibition at 0.1 µM: 47.9%
[1]; [4]
  inhibition at 1 µM: 53.4%
Mu opiate receptor (MOR); Series C-1, 0.1 μM compound, relative to DAMGO
  % DAMGO (0.1 μM): 79.3%
Mu opiate receptor (MOR); Series C-1, 0.1 μM compound, [35S]GTPγS binding to Gαo, striatal membranes
  Concentration of FLNA-Binding Compound as Agonist 0.1 μM: 152.3%
Mu opiate receptor (MOR); Series C-1, 1 μM compound + 1 μM β-FNA
  Concentration of FLNA-Binding Compound as Agonist 1 μM + BFNA: 62.4%
Mu opiate receptor (MOR); Series C-1, 1 μM compound + β-FNA, relative to DAMGO + BFNA
  % DAMGO + BFNA: 129.5%
Mu opiate receptor (MOR); Series C-1, 1 μM compound, relative to DAMGO
  % DAMGO (1 μM): 94.8%
Mu opiate receptor (MOR); Series C-1, 1 μM compound, [35S]GTPγS binding to Gαo, striatal membranes
  Concentration of FLNA-Binding Compound as Agonist 1 μM: 308.2%

## COc1ccc(S(=O)(=O)N2CCOC23CCN(C(C)C)CC3)cc1 [Compound C0133M]
[1]; [2]
  inhibition at 0.01 µM: 47.8%
[1]; [3]
  inhibition at 0.1 µM: 54.9%
[1]; [4]
  inhibition at 1 µM: 58.5%
Mu opiate receptor (MOR); [5]
  % DAMGO (0.1 μM): 83.2%
Mu opiate receptor (MOR); [6]
  MOR agonist activity, percent [35S]GTPγS binding at the stated compound concentration: 139.4%
Mu opiate receptor (MOR); [7]
  MOR agonist activity, percent [35S]GTPγS binding at the stated compound concentration: 72.4%
Mu opiate receptor (MOR); [8]
  % DAMGO + BFNA: 152.4%
Mu opiate receptor (MOR); [9]
  % DAMGO (1 μM): 96.6%
Mu opiate receptor (MOR); [10]
  MOR agonist activity, percent [35S]GTPγS binding at the stated compound concentration: 214.8%

## O=C1CN(Cc2ccccc2)C2(CCNCC2)N1 [Compound C0115M]
[1]; [11]
  inhibition at 0.01 µM: 47.8%
[1]; [12]
  inhibition at 0.1 µM: 57.8%
[1]; [13]
  inhibition at 1 µM: 59.9%
Mu opiate receptor (MOR); [5]
  % DAMGO (0.1 μM): 105.7%
Mu opiate receptor (MOR); [6]
  MOR agonist activity, percent [35S]GTPγS binding at the stated compound concentration: 177.2%
Mu opiate receptor (MOR); [7]
  MOR agonist activity, percent [35S]GTPγS binding at the stated compound concentration: 118.4%
Mu opiate receptor (MOR); [8]
  % DAMGO + BFNA: 249.3%
Mu opiate receptor (MOR); [9]
  % DAMGO (1 μM): 102.0%
Mu opiate receptor (MOR); [10]
  MOR agonist activity, percent [35S]GTPγS binding at the stated compound concentration: 226.8%

## CC1CCC(C)C(OCC(O)CN2CC(C)OC(C)C2)C1 (stereo not shown) [Compound A0022]
[1]; [2]
  inhibition at 0.01 µM: 41.9%
[1]; [3]
  inhibition at 0.1 µM: 49.7%
[1]; [4]
  inhibition at 1 µM: 56.8%
Mu opiate receptor (MOR); 0.1 μM compound
  MOR agonist activity ([35S]GTPγS binding), FLNA-Binding Compound as Agonist 0.1 μM: 154.1%
Mu opiate receptor (MOR); 0.1 μM compound relative to DAMGO
  % DAMGO (0.1 μM): 90.0%
Mu opiate receptor (MOR); 1 μM compound
  MOR agonist activity ([35S]GTPγS binding), FLNA-Binding Compound as Agonist 1 μM: 216.0%
Mu opiate receptor (MOR); 1 μM compound + 1 μM β-funaltrexamine
  MOR agonist activity ([35S]GTPγS binding), FLNA-Binding Compound as Agonist 1 μM + BFNA: 28.0%
Mu opiate receptor (MOR); 1 μM compound + BFNA relative to DAMGO + BFNA
  % DAMGO + BFNA: 53.7%
Mu opiate receptor (MOR); 1 μM compound relative to DAMGO
  % DAMGO (1 μM): 80.9%

## C=CCN1CC[C@]23c4c5ccc(O)c4O[C@H]2C(=O)CC[C@@]3(O)[C@H]1C5 [Naloxone Control, naloxone, reference compound]
[1]; [11]
  inhibition at 0.01 µM: 39.9%
[1]; [12]
  inhibition at 0.1 µM: 46.3%
[1]; [13]
  inhibition at 1 µM: 50.9%

## O=C1CNC2(CCN(CC3CC3)CC2)N1 [Compound C0123M]
[1]; [2]
  inhibition at 0.01 µM: 51.9%
[1]; [3]
  inhibition at 0.1 µM: 60.5%
[1]; [4]
  inhibition at 1 µM: 62.9%

## COc1ccc2c3c1O[C@H]1C(=O)CC[C@@]4(O)[C@@H](C2)N(C)CC[C@]314 [oxycodone, reference compound]
[1]; 10 μM
  Inhibition of 10 nM FITC-conjugated NLX binding to biotinylated FLNA pentapeptide (FIG. 28): minimal binding inhibition

## COc1ccc(OCC(O)CN2CCc3ccccc32)cc1 (stereo not shown) [Compound A0069]
[1]; FLNA-binding compound 0.01 μM
  Percent Binding Inhibition: 32.0%
[1]; FLNA-binding compound 0.1 μM
  Percent Binding Inhibition: 40.4%
[1]; FLNA-binding compound 1 μM
  Percent Binding Inhibition: 46.1%
